Measured values published in patent US6630473B1, “Anti-inflammatory agents and inhibitors against increase in ocular tension caused by irradiation with lasers, containing 1,4-dihydropyridine derivatives” (Senju Pharmaceutical Co., Ltd., priority 1999, dated 2003).
Values joined by “and” are separate entries in the source; they are usually repeats but may differ in a detail not shown here. Identical values can stand only once. Counter-ions that a name gives are not always drawn.

Assays:
[1] = test system: intraocular inflammation induced by photocoagulation of iris due to argon laser irradiation; assay: Anterior chamber protein concentration (laser flare cell meter) after argon laser irradiation of iris; assay type: in vivo, Male Dutch colored house rabbits; details: for protein concentration after laser irradiation, Treated eye / protein concentration after laser irradiation, Non-treated eye: mean ± SE (n = 4); for protein concentration after laser irradiation: intravenous 500 μg/500 μl/kg at 30 minutes and immediately before laser irradiation, mean ± standard error (n = 4)
Description: (§1) The effect of the inventive compound on intraocular inflammation and rise of intraocular pressure induced by photocoagulation of iris due to argon laser irradiation was examined. As regards intraocular inflammation, the anterior chamber protein concentration (photon/msec) was used as an index. Male Dutch colored house rabbits weighing about 2 kg purchased from Fukusaki Rabbit Breeding Cooperative were used for the test, after confirmation of absence of abnormality. The rabbits were raised at temperature of 23±3° C., humidity of 55±10% on a solid feed (the NOSAN GROUP: Labo R Stock, NIHON NOSAN) 100 g a day, allowing free access to tap water. […] The argon laser was irradiated in the middle of both eyes between limbus and the base of iris at 5 sites at the same intervals, under the conditions of size: 200 μm, irradiation time (duration): 0.5 sec, output (power): 0.35 W. To remove the effect of fibrin that occurs after laser irradiation, heparin (1000 U/kg) was intravenously administered. The increase in the anterior chamber protein concentration caused by ophthalmic inflammation was measured with a laser flare cell meter (Kowa Co., Ltd.) immediately before, 30 minutes after and 1 hour after laser irradiation. Nicardipine hydrochloride was intravenously administered at 30 minutes and immediately before laser irradiation by 500 μg/500 μl/kg. Heparin was administered 5 minutes after the first administration of nicardipine hydrochloride. Heparin was administered to the control group at 30 minutes before laser irradiation. Into one eye of the house rabbits was instilled 0.05% and 0.1% iganidipine hydrochloride and 0.1% nicardipine hydrochloride, and into each opposite eye was instilled physiological saline by 10 μl at 30 minutes before laser irradiation. The eye instilled with the test material was taken as the treated eye, and the opposite eye instilled with physiological saline was taken as the non-treated eye. In view of the influence of the test material on the opposite eye, the control eyes were prepared, wherein physiological saline was instilled into one eye, and the other eye was not treated, respectively taken as the control of the treated eye and the control of the non-treated eye. Heparin was intravenously administered immediately after instillation of the test material and physiological saline.

[2] = test system: rise of intraocular pressure induced by photocoagulation of iris due to argon laser irradiation; assay: Intraocular pressure (pneumatonograph) after argon laser irradiation of iris; assay type: in vivo, Male Dutch colored house rabbits
Description: as §1, with “intraocular pressure of” for “increase in”, “both eyes” for “anterior chamber protein concentration caused by ophthalmic inflammation”, “measured” for “measured with a laser flare cell meter (Kowa Co., Ltd.)”, “before” for “before, 30 minutes after”, “0.25, 0.5, 1, 2, 3 and 4 hours” for “1 hour”

[3] = test system: prostaglandin E2 (PGE2) induced inflammatory responses in the anterior uveal tissues and rise of intraocular pressure; details: systemic administration before administration of PGE2; cited from earlier work
[4] = test system: experimental endophthalmitis induced by photocoagulation of iris by the argon laser; details: literature report; nicardipine by intravenous administration; cited from earlier work

With `C=CCN1CCN(CC(C)(C)COC(=O)C2=C(C)NC(C)=C(C(=O)OC)C2c2cccc([N+](=O)[O-])c2)CC1.Cl.Cl` (stereo not drawn) [iganidipine hydrochloride, 3-(4-allyl-1-piperazinyl)-2,2-dimethylpropyl methyl 2,6-dimethyl-4-(m-nitrophenyl)-1,4-dihydropyridine-3,5-dicarboxylate dihydrochloride] the “protein concentration after laser irradiation, Treated eye” value ([1]; instillation of 0.05% iganidipine hydrochloride 10 μl 30 minutes before laser, time 0 min) was 20.55 ± 5.02 /msec, the “protein concentration after laser irradiation, Treated eye” value ([1]; instillation of 0.05% iganidipine hydrochloride 10 μl 30 minutes before laser, time 30 min, dihydrochloride) was 73.8 /msec and 73.75 ± 8.67 /msec and the “protein concentration after laser irradiation, Treated eye” value ([1]; instillation of 0.05% iganidipine hydrochloride 10 μl 30 minutes before laser, time 60 min) was 284.10 ± 17.03 /msec. For the same molecule, the “protein concentration after laser irradiation, Treated eye” value ([1]; instillation of 0.1% iganidipine hydrochloride 10 μl 30 minutes before laser, time 0 min) was 19.18 ± 2.37 /msec, the “protein concentration after laser irradiation, Treated eye” value ([1]; instillation of 0.1% iganidipine hydrochloride 10 μl 30 minutes before laser, time 30 min, dihydrochloride) was 84.7 /msec and 84.70 ± 29.66 /msec and the “protein concentration after laser irradiation, Treated eye” value ([1]; instillation of 0.1% iganidipine hydrochloride 10 μl 30 minutes before laser, time 60 min) was 227.18 ± 10.03 /msec. The “protein concentration after laser irradiation, Non-treated eye” value (“protein concentration … Non-treated eye” below) ([1]; opposite eye (physiological saline) from eye instilled with 0.05% iganidipine hydrochloride, time 0 min) was 11.73 ± 2.97 /msec, the “protein concentration … Non-treated eye” value ([1]; opposite eye (physiological saline) from eye instilled with 0.05% iganidipine hydrochloride, time 30 min) was 68.53 ± 14.40 /msec and the “protein concentration … Non-treated eye” value ([1]; opposite eye (physiological saline) from eye instilled with 0.05% iganidipine hydrochloride, time 60 min) was 313.13 ± 27.06 /msec. For the same molecule, the “protein concentration … Non-treated eye” value ([1]; opposite eye (physiological saline) from eye instilled with 0.1% iganidipine hydrochloride, time 0 min) was 16.03 ± 2.97 /msec, the “protein concentration … Non-treated eye” value ([1]; opposite eye (physiological saline) from eye instilled with 0.1% iganidipine hydrochloride, time 30 min) was 117.33 ± 31.50 /msec and the “protein concentration … Non-treated eye” value ([1]; opposite eye (physiological saline) from eye instilled with 0.1% iganidipine hydrochloride, time 60 min) was 244.45 ± 39.46 /msec. For the same molecule, the “time to restore to the original intraocular pressure” value ([2]; eye instilled with 0.05%) was 90 min, the “rise of intraocular pressure from the initial value” ([2]; eye instilled with 0.05%, 30 minutes from laser irradiation (FIG. 3)) was 6 mmHg and the “time to restore to the original intraocular pressure” value ([2]; eye instilled with 0.1%) was 120 min. For the same molecule, the “rise of intraocular pressure from the initial value” ([2]; eye instilled with 0.1%, 30 minutes from laser irradiation (FIG. 2)) was 7.5 mmHg and the “intraocular pressure of opposite (non-treated) eye compared with control group” value ([2]; eye instilled with physiological saline opposite to the test-material eye, 3 hours after irradiation) was “more significant decrease”.
For `COC(=O)C1=C(C)NC(C)=C(C(=O)OCCN(C)Cc2ccccc2)C1c1cccc([N+](=O)[O-])c1` (stereo not drawn) [nicardipine hydrochloride], the “effect on PGE2-induced inflammatory responses and temporary rise of intraocular pressure” value [3] is listed as “inhibits these responses in a dose-dependent manner”, the “effect on experimental endophthalmitis induced by argon laser photocoagulation of iris” value [4] is listed as “inhibited experimental endophthalmitis” and the “anterior chamber protein concentration compared with control group” value ([1]; eye instilled with 0.1%, 30 minutes after laser irradiation) is listed as “without difference from the control group”. The “protein concentration after laser irradiation, Treated eye” value ([1]; instillation of 0.1% nicardipine hydrochloride 10 μl 30 minutes before laser, time 0 min) was 20.55 ± 5.02 /msec, the “protein concentration after laser irradiation, Treated eye” value ([1]; instillation of 0.1% nicardipine hydrochloride 10 μl 30 minutes before laser, time 30 min, hydrochloride) was 184.1 /msec and 184.05 ± 35.1 /msec and the “protein concentration after laser irradiation, Treated eye” value ([1]; instillation of 0.1% nicardipine hydrochloride 10 μl 30 minutes before laser, time 60 min) was 337.23 ± 46.4 /msec. The “protein concentration after laser irradiation” value ([1]; time 0 min) was 15.53 ± 0.14 /msec, the “protein concentration after laser irradiation” value ([1]; time 30 min, hydrochloride) was 58.1 /msec and 58.08 ± 18.14 /msec and the “protein concentration after laser irradiation” value ([1]; time 60 min) was 30.85 ± 2.58 /msec. The “protein concentration … Non-treated eye” value ([1]; opposite eye (physiological saline) from eye instilled with 0.1% nicardipine hydrochloride, time 0 min) was 11.73 ± 2.97 /msec, the “protein concentration … Non-treated eye” value ([1]; opposite eye (physiological saline) from eye instilled with 0.1% nicardipine hydrochloride, time 30 min) was 118.93 ± 21.21 /msec and the “protein concentration … Non-treated eye” value ([1]; opposite eye (physiological saline) from eye instilled with 0.1% nicardipine hydrochloride, time 60 min) was 349.85 ± 23.02 /msec. For the same molecule, the “effect on the rise of intraocular pressure after laser irradiation” value ([2]; eye instilled with 0.1% (FIG. 4)) was “significant inhibition of the rise of intraocular pressure”, the intraocular pressure ([2]; intravenous administration group, 30 minutes after the irradiation (FIG. 1)) was 24.2 mmHg and the intraocular pressure ([2]; intravenous administration group, 1 hour after the irradiation (FIG. 1)) was 20.8 mmHg. For the same molecule, the “time until which the intraocular pressure effect was sustained” value ([2]; intravenous administration group, after the irradiation) was 4 h, the “decrease of intraocular pressure” value ([2]; intravenous administration group, at 1 hour after the irradiation versus immediately before laser irradiation) was 9.3 mmHg and the intraocular pressure ([2]; intravenous administration group, immediately before laser irradiation (FIG. 1)) was 30.1 mmHg.
For `COC(=O)C1=C(C#N)NC(C)=C(C(=O)OC(C)C)C1c1cccc([N+](=O)[O-])c1` (stereo not drawn) [nilvadipine], the “effect on PGE2-induced inflammatory responses and temporary rise of intraocular pressure” value [3] is listed as “inhibits these responses in a dose-dependent manner”.
